In PMC10202811 (Nature Medicine, 2023):
“Also recorded” adds a separate entry of the source.

Assay: Real-time neurobehavioral monitoring of CNS effects
Type: in vivo, human
Excerpt: The Adaptive Behavior Assessment System 3rd edition (ABAS-3; Harrison & Oakland, 2015) parent-report and self-report forms were used for the assessment of adaptive skills for individuals across all ages. Internal consistency has been reported to be 0.96 or greater for the composite adaptive behavior scale and between 0.86 and 0.99 for the subscales. Construct, convergent and discriminant validity have also been established for this measure.
The Behavior Assessment System for Children 3rd edition (BASC-3; Reynolds & Kamphaus, 2015) is a questionnaire assessing behavioral, emotional and adaptive functioning across settings. For purposes of this study, the Parent Rating Scales (PRS) were administered for patients ages 2–5 years (Preschool form, PRS-P), 6–11 years (Child form, PRS-C) and 12–17 years (Adolescent form, PRS-A). The Self-Report of Personality (SRP) College Form was administered for adult patients ages 18–25 years. The reliability of the BASC-3 is strong, with internal consistency averaging above 0.80 for all the age-specific versions of this questionnaire, and average test–retest reliability is 0.86.
The Behavior Rating Inventory of Executive Function (BRIEF; Gioia et al. 2000) is a questionnaire designed to assess behavioral manifestations of executive functioning and includes multiple versions. Parents of participants aged 2–5 years completed the 63-item preschool version (BRIEF-P). Parents of participants aged 6–17 years completed the BRIEF parent form, which consists of 86 individual items from which eight clinical scales, two indices and one composite score are derived. Patients who were ≥18 years of age completed a 75-item self-report adult version (BRIEF-A). Scores are standardized by age and gender, and high internal consistency (0.73–0.98) and test–retest reliability (0.76–0.90) were observed. Construct, content, convergent and discriminant validity have been established.
CogState Research Battery (version 7; Sands et al. 2017; Heitzer et al. 2018) is a flexible battery of computer-based tests developed to monitor domains of cognition typically affected by cancer treatment, such as attention, memory, executive function and processing speed. Three different versions were used, one for children 3–5 years of age, one for children 6–9 years of age and one for patients 10 years of age and older. Age-standardized z-scores were derived based on the CogState normative dataset finalized in September 2014 for adults and in February 2016 for pediatrics, with construct validity, criterion validity, cultural equivalence and limited practice effects established.
Only measures with established language translations were used. If measures were not available in a patient’s primary language, neurobehavioral toxicity assessment was based on the treating physician’s clinical determination using CTCAE version 4.0 grading criteria. All measures were individually administered by trained, qualified site personnel. Standardized scores were obtained for each instrument administered by comparing raw scores to normative samples provided by the test publishers. All evaluation results were reviewed, analyzed and interpreted centrally in real time by a pediatric neuropsychologist. Determination of clinically meaningful change in functioning (that is, significant decline) relative to baseline or previous screening exam was made at each retest interval. This was calculated using reliable change indices (RCIs) for individual tests or scales, which account for standard errors of measurement, to determine whether a statistically significant change in scores occurred between two timepoints. Meaningful change in performance was considered to occur when clinically significant decline (using 90% CI) was present in 50% of select administered measures. […]

[1] = A1 (< 18 yrs), DL 5 (115 mg/m^2)
[2] = B2 (< 18yrs), DL 5 (115 mg/m^2)
[3] = patient with CNS DLT, A2 (≥ 18 yrs), 100 mg
[4] = patient with CNS DLT, B2 (< 18yrs), DL 5 (115 mg/m^2)
[5] = patients with CNS DLT, A2 (≥ 18 yrs), 150 mg

Which results are given for `C[C@H]1Oc2cc(cnc2N)-c2c(nn(C)c2C#N)CN(C)C(=O)c2ccc(F)cc21` [Lorlatinib, (10R)-7-amino-12-fluoro-2,10,16-trimethyl-15-oxo-10,15,16,17-tetrahydro-2H-8,4-(metheno)pyrazolo[4,3-h][2,5,11]-benzoxadiazacyclotetradecine-3-carbonitrile]?
DLT Corresponding Neuropsych Symptoms, Cognitive [1]: Stable; DLT Corresponding Neuropsych Symptoms, Psychosocial [1]: Adaptive Skills Depression; DLT Corresponding Neuropsych Symptoms, Cognitive (A2 (≥ 18 yrs), 100 mg): Speed/Efficiency Working Memory Immediate Recall; DLT Corresponding Neuropsych Symptoms, Psychosocial (A2 (≥ 18 yrs), 100 mg): Adaptive Skills Attention Working Memory; DLT Corresponding Neuropsych Symptoms, Cognitive (A2 (≥ 18 yrs), 150 mg): Stable; DLT Corresponding Neuropsych Symptoms, Psychosocial (A2 (≥ 18 yrs), 150 mg): Anxiety Depression Emotional Lability Atypicality^c; also recorded: Adaptive Skills Depression Emotional Lability Working Memory; DLT Corresponding Neuropsych Symptoms, Cognitive [2]: Speed/ Efficiency Working Memory; DLT Corresponding Neuropsych Symptoms, Psychosocial [2]: Adaptive Skills Anxiety; Pre-Cycle Neuropsych Symptoms, Psychosocial (patient with CNS DLT, A1 (< 18 yrs), DL 5 (115 mg/m^2)): Atypicality Adaptive Skills; Pre-Cycle Neuropsych Symptoms, Cognitive (patient with CNS DLT, A1 (< 18 yrs), DL 5 (115 mg/m^2), decline from baseline): Stable; Pre-Cycle Neuropsych Symptoms, Cognitive [3]: Speed/ Efficiency Working Memory; Pre-Cycle Neuropsych Symptoms, Psychosocial [3]: Adaptive Skills Attention; Pre-Cycle Neuropsych Symptoms, Cognitive [4]: Speed/ Efficiency; Pre-Cycle Neuropsych Symptoms, Psychosocial [4]: Atypicality Anxiety; Pre-Cycle Neuropsych Symptoms, Cognitive [5]: Stable; also recorded: Visual Memory; Pre-Cycle Neuropsych Symptoms, Psychosocial [5]: Adaptive Skills Anxiety Emotional Lability Working Memory Atypicality; also recorded: Depression Emotional Lability Working Memory
